# Experimental data taken from article PMC12744750 (Plant Communications, 2025).
# Experiments:
# ETR1^306-738 = molecular target: T1, ETR1^306-738 (Arabidopsis thaliana, UniProt P49333); test: Microscale thermophoresis, PLS binding to ETR1 lacking the transmembrane domain; conditions: MST, as full-length; ETR1^306-738 lacking N-terminal transmembrane domain; listed as PLS
# T1 construct: made in house
# T1 sequence (P49333 306-738): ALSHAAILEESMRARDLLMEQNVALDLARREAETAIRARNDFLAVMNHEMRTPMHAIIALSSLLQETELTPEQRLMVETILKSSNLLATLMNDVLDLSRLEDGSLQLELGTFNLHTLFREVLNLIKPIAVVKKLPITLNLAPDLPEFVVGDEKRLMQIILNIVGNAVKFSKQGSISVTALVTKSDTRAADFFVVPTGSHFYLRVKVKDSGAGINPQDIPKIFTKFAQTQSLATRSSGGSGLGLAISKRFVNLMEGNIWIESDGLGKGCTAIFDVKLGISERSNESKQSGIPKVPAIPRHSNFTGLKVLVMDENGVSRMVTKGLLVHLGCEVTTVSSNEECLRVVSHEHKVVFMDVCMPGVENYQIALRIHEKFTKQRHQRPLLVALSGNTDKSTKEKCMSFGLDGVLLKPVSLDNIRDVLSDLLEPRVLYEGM
# Description: Fluorescently labeled ETR1 truncation mutants ([Milić et al., 2018]) were added to a dilution series of synthetic PLS in 50 mM HEPES, 150 mM NaCl, and 0.015% (w/v) FosCholine 16 (pH 7.6) or 50 mM Tris, 300 mM NaCl, and 0.015% (w/v) FosCholine 16 (pH 7.6). Dissociation constants were calculated using GraphPad Prism 5.
# Full-length ETR1 and its truncation mutants were purified and labeled as described previously ([Milić et al., 2018]). Synthetic PLS (94 μM) was diluted serially in 50 mM Tris and 300 mM NaCl (pH 7.6). Fluorescently labeled receptor was added at a final concentration of 50 nM. Thermophoretic behavior was measured in premium capillaries at 50% LED and 50% microscale thermophoresis power. In case of a binding event, data were fitted using GraphPad Prism 5.
# [1] = tested on: Arabidopsis pls mutant seedlings (primary root length); test: Hydroponic peptide feeding: rescue of short primary root of pls mutant; assay type: in vivo, Arabidopsis thaliana
# Description: (A) Amino acid sequence of the PLS peptide from Arabidopsis thaliana with the Camelina sativa PLS sequence and the synthetic truncations N1, N2, C1, and C2 indicated by horizontal lines. Two cysteine residues are highlighted in bold. (B) Effect of the synthetic Arabidopsis PLS full-length peptide, A. thaliana PLS(FL), and the Camelina PLS peptide (C. sativa PLS) on Arabidopsis primary root length. Wild-type (C24; blue bars) and pls mutant seedlings (orange bars) were grown hydroponically in the presence (100 nM) or absence of peptide for 10 days. ∗∗∗P < 0.05, t-test between C24 and pls. Error bars show ±1 standard error of the mean, n = 20. (C) Effect of synthetic full-length and truncated peptides on primary root length of wild-type (blue bars) and pls mutant (orange bars) Arabidopsis. Seedlings were grown hydroponically in the presence of 50 nM peptide for 10 days. C1, C-terminal 14 amino acids; C2, C-terminal 24 amino acids; N1, N-terminal 22 amino acids; N2, N-terminal 9 amino acids; full-length PLS, 36 amino acids. Error bars show ±1 standard error of the mean, n = 25. ∗∗∗P < 0.05, t-test between C24 and pls.
# proPLS::PLS:GFP comprises a 1.5-kb PLS promoter sequence ([Casson et al., 2002]) fused to the PLS open reading frame in pMDC107 (obtained from Prof. P.J. Hussey, Durham University) as a C-terminal GFP translational fusion. The PLS ORF with its 1.5-kb promoter was amplified from the TOPO 2.1 vector, which contained the PLS gene sequence with promoter ([Casson et al., 2002]); the primers used for cloning are listed in supplemental Table 9. pls mutant plants were transformed using the method of [Clough and Bent (1998)]. proPLS::GFP plants were generated using the 1.5-kb PLS promoter ([Casson et al., 2002]) fused to GFP in a wild-type background. p35S::GFP seedlings were obtained from Dr. Piers Hemsley, Durham University. Seedlings of Arabidopsis thaliana ecotype C24 or Col-0, pls mutants, and transgenic PLS overexpressers, all from lab stocks, were grown on solid sterile half-strength (2.2 g/l) Murashige and Skoog medium (Sigma-Aldrich) containing 10 g/l sucrose (half-strength [½] MS10 medium) solidified with 2.5 g/l Phytagel (Sigma-Aldrich) in 90-mm Petri dishes (Sarstedt, Leicester, UK) at 21°C under a 16-h photoperiod as described previously ([Casson et al., 2002]; [Chilley et al., 2006]). N. benthamiana plants (lab stocks) were grown in a controlled environment (21°C, 16-h photoperiod) for transient expression studies in leaf tissue. For hydroponic feeding studies, Arabidopsis seedlings were cultured in liquid ½ MS10 medium (1 ml/well) in sterile 24-well plates (Sarstedt), essentially as described in [Matsuzaki et al. (2010]). For hormone and peptide assays, one seedling was grown in each well at 21°C under a 16-h photoperiod. For peptide feeding experiments, purified freeze-dried peptide was dissolved in DMSO to create a 500-μM stock solution. The peptide stock solution was added to liquid ½ MS10 medium containing 0.1% DMSO to obtain a final peptide concentration of 50 or 100 nM (or 10, 25, 50, and 100 nM for dose-dependent assays). For copper treatments, 1 mM CuSO4 solution was filter sterilized and added to autoclaved liquid ½ MS10 medium to obtain final CuSO4 concentrations of 0, 5, 10, 15, 20, 25, 30, 35, 40, 45, and 50 μM. Seedlings were scanned to create a digital image, and root lengths of the seedlings were measured using ImageJ. Statistical analysis was performed using Real Statistics Resource Pack software (release 3.8, www.real-statistics.com) in Excel (Microsoft) using data from at least 10 independently grown seedlings for root growth analysis; specific numbers are defined for each experiment.
substance,measurement,setting,value
PLS(FL): full-length 36-amino-acid PLS peptide from Arabidopsis (MKPRLCFNFRRRSISPCYISISYLLVAKLFKLFKIH),binding (dissociation constant),ETR1^306-738,no binding was detected
same,rescue of root growth of pls seedlings,"[1]; 50 nM peptide, hydroponic, 10 days, n = 25 (Figure 2C)",rescued root growth
same,"difference in rescue effects of PLS(FL) and PLS(N1), t-test P","[1]; 50 nM, n = 25",> 0.1
same,difference in rescue effects of PLS(FL) and PLS(N1),"[1]; 50 nM, n = 25, t-test",did not differ significantly
same,rescue of short primary root length of pls mutant,"[1]; hydroponic, 10 days, 100 nM (Figure 2B) or 50 nM (Figure 2C)",able to rescue the short primary root length
